Experimental data as given in patent US6740662B1, “Naphthyridine derivatives” (Yamanouchi Pharmaceutical Co., Ltd., priority 1999, dated 2004).
Where a name gives a salt, the structure may show the parent alone.

| melting point [°C] | Compound |
| --- | --- |
| 225 to 227 | CCn1c(=O)c(C2CCNCC2)c(-c2cccc(Cl)c2)c2ccc(C)nc21 (as salt: fumarate) [Example 28, 4-(3-chlorophenyl)-1-ethyl-7-methyl-3-(piperidin-4-yl)-1,8-naphthyridin-2(1H)-one monofumarate] |
| 228 to 230 | CCn1c(=O)c(CCC(=N)N)c(-c2cccc(Cl)c2)c2ccc(C)nc21 (as salt: hydrochloride) [Example 40, 3-(2-amidinoethyl)-4-(3-chlorophenyl)-1-ethyl-7-methyl-1,8-naphthyridin-2(1H)-one monohydrochloride] |
| 146 to 148 | CCn1c(=O)c(CCCC(=O)O)c(-c2cccc(Cl)c2)c2ccc(C)nc21 (hydrate or solvate) [Example 61, 4-[4-(3-chlorophenyl)-1-ethyl-7-methyl-2-oxo-1,2-dihydro-1,8-naphthyridin-3-yl]butanoic acid] |
| 119 to 121 | CCOC(=O)c1c(-c2cccc(Cl)c2)c2ccc(C)nc2n(CC)c1=O [Example 1, ethyl 4-(3-chlorophenyl)-1-ethyl-7-methyl-2-oxo-1,2-dihydro-1,8-naphthyridin-3-carboxylate] |
| 249 to 252 | CCn1c(=O)c(C(N)=O)c(-c2cccc(Cl)c2)c2ccc(C)nc21 [Example 4, 4-(3-chlorophenyl)-1-ethyl-7-methyl-2-oxo-1,2-dihydro-1,8-naphthyridin-3-carboxamide] |
| 134 to 136 | CCn1c(=O)c(CCC(=O)N(C)C)c(-c2cccc(Cl)c2)c2ccc(C)nc21 [Example 6, 3-[4-(3-chlorophenyl)-1-ethyl-7-methyl-2-oxo-1,2-dihydro-1,8-naphthyridin-3-yl]-N,N-dimethylpropanamide] |
| 183 to 184 | CCOC(=O)Nc1c(-c2cccc(Cl)c2)c2ccc(C)nc2n(CC)c1=O [Example 9, ethyl N-[4-(3-chlorophenyl)-1-ethyl-7-methyl-2-oxo-1,2-dihydro-1,8-naphthyridin-3-yl]carbamate] |
| 167 to 171 | CCn1c(=O)c(N)c(-c2cccc(Cl)c2)c2ccc(C)nc21 [Example 10, 3-amino-4-(3-chlorophenyl)-1-ethyl-7-methyl-1,8-naphthyridin-2(1H)-one] |
| 140 to 141 | CCn1c(=O)c(CCCNS(C)(=O)=O)c(-c2cccc(Cl)c2)c2ccc(C)nc21 [Example 14, N-{3-[4-(3-chlorophenyl)-1-ethyl-7-methyl-2-oxo-1,2-dihydro-1,8-naphthyridin-3-yl]propyl}methanesulfonamide] |
| 109 to 110 | CCn1c(=O)c(CCCO)c(-c2cccc(Cl)c2)c2ccc(C)nc21 [Example 16, 4-(3-chlorophenyl)-1-ethyl-3-(3-hydroxypropyl)-7-methyl-1,8-naphthyridin-2(1H)-one] |
| 92 to 93 | CCn1c(=O)c(CCCOC(=O)OC)c(-c2cccc(Cl)c2)c2ccc(C)nc21 [Example 34, 4-(3-chlorophenyl)-1-ethyl-3-[3-(methoxycarbonyloxy)propyl]-7-methyl-1,8-naphthyridin-2(1H)-one] |
| 96 to 97 | CCn1c(=O)c(CCCOC)c(-c2cccc(Cl)c2)c2ccc(C)nc21 [Example 35, 4-(3-chlorophenyl)-1-ethyl-3-(3-methoxypropyl)-7-methyl-1,8-naphthyridin-2(1H)-one] |
| 142 to 146 | CCn1c(=O)c(CCN2CCC(C(=O)O)CC2)c(-c2cccc(Cl)c2)c2ccc(C)nc21 [Example 38, 1-{2-[4-(3-chlorophenyl)-1-ethyl-7-methyl-2-oxo-1,2-dihydro-1,8-naphthyridin-3-yl]ethyl}piperidine-4-carboxylic acid] |
| 157 to 160 | CCn1c(=O)c(CCC(=O)O)c(-c2cccc(Cl)c2)c2ccc(CO)nc21 [Example 42, 3-[4-(3-chlorophenyl)-1-ethyl-7-hydroxymethyl-2-oxo-1,2-dihydro-1,8-naphthyridin-3-yl]propanoic acid] |
| 202 to 204 | CCn1c(=O)c(CCC(=O)O)c(-c2cccc(Cl)c2)c2ccc(NC)nc21 [Example 44, 3-[4-(3-chlorophenyl)-1-ethyl-7-methylamino-2-oxo-1,2-dihydro-1,8-naphthyridin-3-yl]propanoic acid] |
| 161 to 162 | CCn1c(=O)c(CCC(=O)O)c(-c2cccc(Br)c2)c2ccc(C)nc21 [Example 46, 3-[4-(3-bromophenyl)-1-ethyl-7-methyl-2-oxo-1,2-dihydro-1,8-naphthyridin-3-yl]propanoic acid] |
| 155 to 158 | CCn1c(=O)c(CCCc2nnn[nH]2)c(-c2cccc(Cl)c2)c2ccc(C)nc21 [Example 70, 4-(3-chlorophenyl)-1-ethyl-7-methyl-3-[3-(1H-tetrazol-5-yl)propyl]-1,8-naphthyridin-2(1H)-one] |
| 188 to 189 | CCn1c(=O)c(CCC(=O)O)c(-c2cccs2)c2ccc(C)nc21 [Example 78] |
| 194 to 196 | CCn1c(=O)c(CCc2nnn[nH]2)c(-c2cccc(Br)c2)c2ccc(C)nc21 [Example 80] |
